The values below come from PubChem BioAssay AID248 (DTP/NCI, 2004).

In this assay the test system is L1210 leukemia ip in BDF1 mice, survival T/C. Description: NCI In Vivo Anticancer Drug Screen. Data for tumor model L1210 Leukemia (intraperitoneal) in B6D2F1 (BDF1) mice. As to conditions: endpoint: mean survival time, higher = longer survival. The procedure, abridged: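 Value reflects the ratio of survival in compound-treated mice to survival in vehicle-treated controls, with both groups carrying the same transplanted tumor.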

Setting [1] is: dose: 100.0 mg/kg/injection, schedule: Q01DX009 (ip), vehicle: saline with Tween-80.
Setting [2] is: dose: 100.0 mg/kg/injection, schedule: Q04DX003 (ip), vehicle: saline with Tween-80.
Setting [3] is: dose: 200.0 mg/kg/injection, schedule: Q01DX009 (ip), vehicle: saline with Tween-80.
Where [4] appears, read: dose: 25.0 mg/kg/injection, schedule: Q01DX009 (ip), vehicle: saline.
[5] abbreviates: dose: 100.0 mg/kg/injection, schedule: Q01DX009 (ip), vehicle: saline.

The structures appear in SMILES notation. Several values for one entry are separate records, joined by “and”; a condition that tells them apart may be missing. Equal entries are not always repeated. Inconclusive results and toxic doses are left out.

Turning to `COc1ccc(C2(C#N)CC2)cc1`, the T/C is 86 % of control under setting [1]; 101 % of control under setting [2]; 88 % of control under setting [3]; 101 % of control (dose: 200.0 mg/kg/injection, schedule: Q04DX003 (ip), vehicle: saline with Tween-80); 103 % of control (dose: 400.0 mg/kg/injection, schedule: Q01DX009 (ip), vehicle: saline with Tween-80); 103 % of control (dose: 400.0 mg/kg/injection, schedule: Q04DX003 (ip), vehicle: saline with Tween-80).
With `c1ccc2c[n+]3cc4ccccc4cc3cc2c1`, the T/C reads like this: (dose: 6.25 mg/kg/injection, schedule: Q01DX009 (ip), vehicle: saline) 101 % of control; (dose: 12.5 mg/kg/injection, schedule: Q01DX009 (ip), vehicle: saline) 104 % of control; under setting [4], 104 % of control; (dose: 35.0 mg/kg/injection, schedule: Q01DX009 (ip), vehicle: saline) 95 % of control.
Consider `c1ccc2c(c1)C[n+]1ccccc1-2`, for which the T/C (dose: 75.0 mg/kg/injection, schedule: Q01DX001 (ip), vehicle: other) was 102 % of control.
As to `CCOC(=O)c1ccc(S(=O)(=O)NCCCc2c(C)nc(N)[nH]c2=O)cc1`, the T/C reads like this: (dose: 12.5 mg/kg/injection, schedule: Q01DX001 (ip), vehicle: saline with Tween-80) 90 % of control; (dose: 25.0 mg/kg/injection, schedule: Q01DX001 (ip), vehicle: saline with Tween-80) 103 % of control; (dose: 50.0 mg/kg/injection, schedule: Q01DX001 (ip), vehicle: saline with Tween-80) 90 % of control.
Take `CCOc1ccc(NC(=O)c2ccccc2Cl)cc1`: the T/C (dose: 100.0 mg/kg/injection, schedule: Q01DX009 (ip), vehicle: Klucel (hydroxypropylcellulose) (HPC)) is 98 % of control; the T/C (dose: 200.0 mg/kg/injection, schedule: Q01DX009 (ip), vehicle: Klucel (hydroxypropylcellulose) (HPC)) is 95 % of control; the T/C (dose: 400.0 mg/kg/injection, schedule: Q01DX009 (ip), vehicle: Klucel (hydroxypropylcellulose) (HPC)) was 103 % of control.
As to `O=C1CCC(=O)N1O`, the T/C was 94 % of control (dose: 50.0 mg/kg/injection, schedule: Q01DX Z (ip), vehicle: saline); 93 % of control under setting [5]; 93 % of control (dose: 100.0 mg/kg/injection, schedule: Q01DX Z (ip), vehicle: saline); 90 % of control (dose: 200.0 mg/kg/injection, schedule: Q01DX009 (ip), vehicle: saline); 96 % of control (dose: 200.0 mg/kg/injection, schedule: Q01DX Z (ip), vehicle: saline); 92 % of control (dose: 400.0 mg/kg/injection, schedule: Q01DX009 (ip), vehicle: saline). Also, where the note is “dose: 400.0 mg/kg/injection, schedule: Q01DX Z (ip), vehicle: saline”, the T/C was 93 % of control.
Turning to `COc1cc2c(cc1OC)C1CCc3cc(OC)c(OC)cc3C1N=C2` (stereo not given), the T/C is 102 % of control (dose: 80.0 mg/kg/injection, schedule: Q01DX009 (ip), vehicle: saline); 93 % of control (dose: 120.0 mg/kg/injection, schedule: Q01DX009 (ip), vehicle: saline); 93 % of control (dose: 240.0 mg/kg/injection, schedule: Q01DX009 (ip), vehicle: saline); 93 % of control (dose: 360.0 mg/kg/injection, schedule: Q01DX009 (ip), vehicle: saline).
Regarding `O=C(Nc1ccc(C2=NCCN2)cc1)c1ccc(C(=O)Nc2ccc(C3=NCCN3)cc2)c2ccccc12`, the T/C by setting is: (dose: 3.75 mg/kg/injection, schedule: Q01DX Z (ip), vehicle: methylcellulose (MC)) 102 % of control; (dose: 7.5 mg/kg/injection, schedule: Q01DX Z (ip), vehicle: methylcellulose (MC)) 118 % of control; (dose: 15.0 mg/kg/injection, schedule: Q01DX Z (ip), vehicle: methylcellulose (MC)) 169 % of control; (dose: 30.0 mg/kg/injection, schedule: Q01DX Z (ip), vehicle: methylcellulose (MC)) 166 % of control and 170 % of control; (dose: 30.0 mg/kg/injection, schedule: Q01DX Z (oral), vehicle: carboxymethylcellulose (CMC)) 102 % of control; (dose: 120.0 mg/kg/injection, schedule: Q01DX Z (oral), vehicle: carboxymethylcellulose (CMC)) 94 % of control.
As to `O=C(CNC(=O)Nc1ccc(Cl)c(Cl)c1)N/N=C/c1c(O)ccc2ccccc12`, the T/C reads like this: (dose: 50.0 mg/kg/injection, schedule: Q01DX009 (ip), vehicle: saline with Tween-80) 93 % of control; under setting [1], 93 % of control; under setting [3], 91 % of control.
For `CC(=O)Oc1cc2c3c(c1)-c1c(ccc(OC(C)=O)c1OC(C)=O)CC3NCC2` (stereo not given), the T/C runs as follows: (dose: 3.13 mg/kg/injection, schedule: Q04DX003 (ip), vehicle: DMSO) 93 % of control; (dose: 6.25 mg/kg/injection, schedule: Q04DX003 (ip), vehicle: DMSO) 93 % of control; (dose: 12.5 mg/kg/injection, schedule: Q04DX003 (ip), vehicle: DMSO) 93 % of control; (dose: 25.0 mg/kg/injection, schedule: Q04DX003 (ip), vehicle: DMSO) 98 % of control; (dose: 50.0 mg/kg/injection, schedule: Q04DX003 (ip), vehicle: DMSO) 87 % of control.
Regarding `CC(C)(C)COC(=O)c1ccccc1`, the T/C is 102 % of control (dose: 100.0 mg/kg/injection, schedule: Q01DX001 (ip), vehicle: carboxymethylcellulose (CMC)); 91 % of control (dose: 200.0 mg/kg/injection, schedule: Q01DX001 (ip), vehicle: carboxymethylcellulose (CMC)); 91 % of control (dose: 400.0 mg/kg/injection, schedule: Q01DX001 (ip), vehicle: carboxymethylcellulose (CMC)).
For `Cc1ccc(S(=O)(=O)O/N=C/C23c4ccccc4C4C(c5ccccc52)C43)cc1` (stereo not given), the T/C by setting is: (dose: 25.0 mg/kg/injection, schedule: Q04DX002 (ip), vehicle: saline with Tween-80) 100 % of control; (dose: 150.0 mg/kg/injection, schedule: Q04DX002 (ip), vehicle: saline with Tween-80) 93 % of control; (dose: 300.0 mg/kg/injection, schedule: Q04DX002 (ip), vehicle: saline with Tween-80) 93 % of control.
For `COc1ccc(/C=N\NC(=O)c2ccncc2)cc1O`, the T/C runs as follows: (dose: 100.0 mg/kg/injection, schedule: Q04DX002 (ip), vehicle: Klucel (hydroxypropylcellulose) (HPC)) 118 % of control; (dose: 200.0 mg/kg/injection, schedule: Q04DX002 (ip), vehicle: Klucel (hydroxypropylcellulose) (HPC)) 106 % of control; (dose: 400.0 mg/kg/injection, schedule: Q04DX002 (ip), vehicle: Klucel (hydroxypropylcellulose) (HPC)) 106 % of control.
As to `O=Cc1nc2ccccc2cc1CCl`, where the note is “dose: 75.0 mg/kg/injection, schedule: Q01DX001 (ip), vehicle: saline”, the T/C was 92 % of control.
Take `NOC(=O)C1C(c2ccccc2)C1(c1ccccc1)c1ccccc1` (stereo not given): the T/C is 104 % of control (dose: 100.0 mg/kg/injection, schedule: Q01DX001 (ip), vehicle: steriod suspending solution); 95 % of control (dose: 200.0 mg/kg/injection, schedule: Q01DX001 (ip), vehicle: steriod suspending solution); 117 % of control (dose: 400.0 mg/kg/injection, schedule: Q01DX001 (ip), vehicle: steriod suspending solution).
On to `CC(C)(N)CNc1ccccc1`, for which the T/C is, setting by setting: under setting [4], 98 % of control; (dose: 25.0 mg/kg/injection, schedule: Q04DX003 (ip), vehicle: saline) 97 % of control; (dose: 50.0 mg/kg/injection, schedule: Q01DX009 (ip), vehicle: saline) 98 % of control; (dose: 50.0 mg/kg/injection, schedule: Q04DX003 (ip), vehicle: saline) 92 % of control; under setting [5], 100 % of control; under setting [2], 98 % of control. Besides, the T/C (dose: 100.0 mg/kg/injection, schedule: Q04DX003 (ip), vehicle: saline) is 105 % of control.
Consider `Cc1cc(N(CCCl)CCCl)ccc1C1N(Cc2ccccc2N(C)C)CCCN1Cc1ccccc1N(C)C`, for which the T/C was 101 % of control (dose: 4.0 mg/kg/injection, schedule: Q12HX018 (ip), vehicle: other); 98 % of control (dose: 6.0 mg/kg/injection, schedule: Q12HX018 (ip), vehicle: other); 102 % of control (dose: 8.0 mg/kg/injection, schedule: Q12HX018 (ip), vehicle: Klucel (hydroxypropylcellulose) (HPC)); 109 % of control (dose: 8.0 mg/kg/injection, schedule: Q12HX018 (ip), vehicle: other); 107 % of control (dose: 16.0 mg/kg/injection, schedule: Q12HX018 (ip), vehicle: Klucel (hydroxypropylcellulose) (HPC)); 105 % of control (dose: 32.0 mg/kg/injection, schedule: Q12HX018 (ip), vehicle: Klucel (hydroxypropylcellulose) (HPC)).
With `O=C1NC(=O)C(=Cc2ccc(N(CCCl)CCCl)cc2)C(=O)N1`, the T/C was 102 % of control (dose: 100.0 mg/kg/injection, schedule: Q01DX Z (ip), vehicle: methylcellulose (MC)) and 121 % of control (dose: 200.0 mg/kg/injection, schedule: Q01DX Z (ip), vehicle: methylcellulose (MC)).
